Measurements as given in patent publication US20260355196A1, “INHIBITORS AND DEGRADERS OF PIP4K PROTEIN” (Larkspur Biosciences, Inc., priority 2023, published 2026).

These compounds were tested against T1, PIP4K2C (Homo sapiens, UniProt Q8TBX8) (assay: HiBiT PIP4K2C degradation assay in MOLT-4 cells (endogenous PIP4K2C C-terminally tagged with HiBiT)). Details: 6 hours of incubation time, rather than 24 hours; MOLT-4, top concentration 10 micromolar; read-out: HiBIT-degradation MOLT4 PIP4k2C DC50 (6 hours, marked *).
T1 sequence (Q8TBX8 1-421): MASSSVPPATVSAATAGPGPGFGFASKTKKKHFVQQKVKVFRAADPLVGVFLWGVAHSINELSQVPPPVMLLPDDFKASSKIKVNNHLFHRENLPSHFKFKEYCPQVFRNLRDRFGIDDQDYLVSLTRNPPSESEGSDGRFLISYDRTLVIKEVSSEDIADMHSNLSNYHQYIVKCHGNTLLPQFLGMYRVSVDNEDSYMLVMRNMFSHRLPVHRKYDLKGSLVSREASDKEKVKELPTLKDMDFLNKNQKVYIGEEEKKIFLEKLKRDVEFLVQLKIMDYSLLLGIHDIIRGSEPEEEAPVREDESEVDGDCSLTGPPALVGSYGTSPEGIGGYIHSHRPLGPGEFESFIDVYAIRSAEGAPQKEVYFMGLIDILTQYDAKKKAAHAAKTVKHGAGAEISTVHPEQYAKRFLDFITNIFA
Assay type: cell-based
Design: untagged in primary human PBMCs and monocyte-derived dendritic cells
Procedure, shortened: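 MOLT-4 cells with endogenous PIP4K2C C-terminally HiBiT-tagged by CRISPR were treated with a 10-point, 3-fold dilution series from 10 micromolar, in duplicate, for 24 h or 6 h at 37 C. Remaining tagged protein read by HiBiT lytic luminescence; DC50 from Hill-equation fit.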

DC50, < 500 nM:
O=C1CC[C@H](Nc2ccc(N3CCN([C@H]4CC[C@H](NC(=O)[C@H]5CC[C@H](Nc6ncc(F)c(-c7cccc(-c8ccc[nH]c8=O)c7)n6)CC5)CC4)CC3)c(F)c2)C(=O)N1 (single isomer, unassigned) [Compound 441]
O=C1CC[C@@H](Nc2ccc(C3CCN(CC4(O)CCN(C(=O)[C@H]5CC[C@H](Nc6ncc(F)c(-c7cccc(-n8ccccc8=O)c7)n6)CC5)CC4)CC3)c(F)c2)C(=O)N1 (single isomer, unassigned) [Compound 442]
O=C1CC[C@H](Nc2ccc(C3CCN(CC4(O)CCN(C(=O)[C@H]5CC[C@H](Nc6ncc(F)c(-c7cccc(-n8ccccc8=O)c7)n6)CC5)CC4)CC3)c(F)c2)C(=O)N1 (single isomer, unassigned) [Compound 443]
O=C1CC[C@@H](Nc2ccc(N3CCN([C@H]4CC[C@H](C(=O)N[C@H]5CC[C@H](Nc6ncc(F)c(-c7cccc(N8CCCCC8=O)c7)n6)CC5)CC4)CC3)c(F)c2)C(=O)N1 (single isomer, unassigned) [Compound 445]
O=C1CC[C@@H](Nc2ccc(C3CCN(CC4CCN(C(=O)[C@H]5CC[C@H](Nc6ncc(F)c(-c7cccc(N8CCCCC8=O)c7)n6)CC5)CC4)CC3)c(F)c2)C(=O)N1 (single isomer, unassigned) [Compound 448]
O=C1CC[C@H](Nc2ccc(C3CCN(CC4CCN(C(=O)[C@H]5CC[C@H](Nc6ncc(F)c(-c7cccc(N8CCCCC8=O)c7)n6)CC5)CC4)CC3)c(F)c2)C(=O)N1 (single isomer, unassigned) [Compound 449]
O=C1CC[C@@H](Nc2ccc(C3CCN(CC4CCN(C(=O)[C@H]5CC[C@H](Nc6ncc(F)c(-c7cccc(-n8ccccc8=O)c7)n6)CC5)CC4)CC3)c(F)c2)C(=O)N1 (single isomer, unassigned) [Compound 455]
O=C1CC[C@H](Nc2ccc(C3CCN(CC4CCN(C(=O)[C@H]5CC[C@H](Nc6ncc(F)c(-c7cccc(-n8ccccc8=O)c7)n6)CC5)CC4)CC3)c(F)c2)C(=O)N1 (single isomer, unassigned) [Compound 456]
O=C1CC[C@H](Nc2ccc(N3CCN([C@H]4CC[C@H](C(=O)N[C@H]5CC[C@H](Nc6ncc(F)c(-c7cccc(N8CCCCC8=O)c7)n6)CC5)CC4)CC3)c(F)c2)C(=O)N1 (single isomer, unassigned) [Compound 458]
O=C1CC[C@@H](Nc2ccc(N3CCN(C[C@H]4CC[C@H](CNC(=O)[C@H]5CC[C@H](Nc6ncc(F)c(-c7cccc(-n8ccccc8=O)c7)n6)CC5)CC4)CC3)c(F)c2)C(=O)N1 (single isomer, unassigned) [Compound 459]
O=C1CC[C@H](Nc2ccc(N3CCN(C[C@H]4CC[C@H](CNC(=O)[C@H]5CC[C@H](Nc6ncc(F)c(-c7cccc(-n8ccccc8=O)c7)n6)CC5)CC4)CC3)c(F)c2)C(=O)N1 (single isomer, unassigned) [Compound 460]
O=C1CC[C@@H](Nc2ccc(N3CCN([C@H]4CC[C@H](C(=O)N[C@H]5CC[C@H](Nc6ncc(F)c(-c7cccc(N8CCCOC8=O)c7)n6)CC5)CC4)CC3)c(F)c2)C(=O)N1 (single isomer, unassigned) [Compound 461]
O=C1CC[C@H](Nc2ccc(N3CCN([C@H]4CC[C@H](C(=O)N[C@H]5CC[C@H](Nc6ncc(F)c(-c7cccc(N8CCCOC8=O)c7)n6)CC5)CC4)CC3)c(F)c2)C(=O)N1 (single isomer, unassigned) [Compound 462]
O=C1CCC(Nc2ccc(C3CCN([C@H]4CC[C@H](C(=O)N[C@H]5CC[C@H](Nc6ncc(F)c(-c7cccc(N8CCCCC8=O)c7)n6)CC5)CC4)CC3)c(F)c2)C(=O)N1 (single isomer, unassigned) [Compound 592]
O=C1CC[C@@H](Nc2ccc(C3CCN([C@H]4CC[C@H](C(=O)N[C@H]5CC[C@H](Nc6ncc(F)c(-c7cccc(N8CCCCC8=O)c7)n6)CC5)CC4)CC3)c(F)c2)C(=O)N1 (single isomer, unassigned) [Compound 593]
O=C1CC[C@H](Nc2ccc(N3CCC(N4CCC(O)(C(=O)N[C@H]5CC[C@H](Nc6ncc(F)c(-c7cccc(-n8ccccc8=O)c7)n6)CC5)CC4)CC3)c(F)c2)C(=O)N1 (single isomer, unassigned) [Compound 594]
O=C1CC[C@@H](Nc2ccc(N3CCC(N4CCC(O)(C(=O)N[C@H]5CC[C@H](Nc6ncc(F)c(-c7cccc(-n8ccccc8=O)c7)n6)CC5)CC4)CC3)c(F)c2)C(=O)N1 (single isomer, unassigned) [Compound 595]
O=C1CC[C@H](Nc2ccc(C3CCN(CC4CCN(C(=O)[C@H]5CC[C@H](Nc6ncc(F)c(-c7cccc(N8CCCOC8=O)c7)n6)CC5)CC4)CC3)c(F)c2)C(=O)N1 (single isomer, unassigned) [Compound 600]
O=C1CC[C@@H](Nc2ccc(C3CCN(CC4CCN(C(=O)[C@H]5CC[C@H](Nc6ncc(F)c(-c7cccc(N8CCCOC8=O)c7)n6)CC5)CC4)CC3)c(F)c2)C(=O)N1 (single isomer, unassigned) [Compound 601]
O=C1CC[C@@H](Nc2ccc(N3CCN([C@H]4CC[C@H](C(=O)N[C@H]5CC[C@H](Nc6ncc(F)c(-c7cccc(-n8ccccc8=O)c7)n6)CC5)CC4)CC3)c(F)c2)C(=O)N1 (single isomer, unassigned) [Compound 602]
O=C1CC[C@H](Nc2ccc(N3CCN([C@H]4CC[C@H](C(=O)N[C@H]5CC[C@H](Nc6ncc(F)c(-c7cccc(-n8ccccc8=O)c7)n6)CC5)CC4)CC3)c(F)c2)C(=O)N1 (single isomer, unassigned) [Compound 603]
Cn1nc([C@@H]2CCC(=O)NC2=O)c2ccc(C3CCN(CC4CCN(C(=O)O[C@H]5CC[C@H](Nc6ncc(F)c(-c7cccc(-n8ccccc8=O)c7)n6)CC5)CC4)CC3)cc21 (single isomer, unassigned) [Compound 638]
Cn1nc([C@H]2CCC(=O)NC2=O)c2ccc(C3CCN(CC4CCN(C(=O)O[C@H]5CC[C@H](Nc6ncc(F)c(-c7cccc(-n8ccccc8=O)c7)n6)CC5)CC4)CC3)cc21 (single isomer, unassigned) [Compound 639]

Same assay, conditions: 24 hours incubation, MOLT-4, top concentration 10 micromolar; read-out: HiBIT-degradation MOLT4 PIP4k2C 24 hours DC50

DC50, < 500 nM:
O=C1CCC(N2Cc3cc(OC4CCN(C(=O)C5CCN(C(=O)C6CCC[C@@H](Nc7ncc(Cl)c(-c8cccc(-c9ccccc9)c8)n7)C6)CC5)CC4)ccc3C2=O)C(=O)N1 (stereo in doubt) [Compound 77, cis-3-(5-((1-(1-(3-((4-([1,1′-biphenyl]-3-yl)-5-chloropyrimidin-2-yl)amino)cyclohexane-1-carbonyl)piperidine-4-carbonyl)piperidin-4-yl)oxy)-1-oxoisoindolin-2-yl)piperidine-2,6-dione]
O=C1CCC(Nc2ccc(C3CCN(C[C@H]4CC[C@H](NC(=O)[C@H]5CCC[C@@H](Nc6ncc(F)c(-c7cccc(-n8ccccc8=O)c7)n6)C5)CC4)CC3)c(F)c2)C(=O)N1 (stereo in doubt) [Compound 324, trans-N-(cis-4-((4-(4-((2,6-dioxopiperidin-3-yl)amino)-2-fluorophenyl)piperidin-1-yl)methyl)cyclohexyl)-3-((5-fluoro-4-(3-(2-oxopyridin-1(2H)-yl)phenyl)pyrimidin-2-yl)amino)cyclohexane-1-carboxamide]
Cn1c(=O)n(C2CCC(=O)NC2=O)c2ccc(C3CCN(CCN4CCC(C(=O)N5CCC[C@H](Nc6ncc(Cl)c(-c7cccc(-c8ccccc8)c7)n6)C5)CC4)CC3)cc21 (stereo partly drawn) [Compound 44, 3-(5-(1-(2-(4-((S)-3-((4-([1,1′-biphenyl]-3-yl)-5-chloropyrimidin-2-yl)amino)piperidine-1-carbonyl)piperidin-1-yl)ethyl)piperidin-4-yl)-3-methyl-2-oxo-2,3-dihydro-1H-benzo[d]imidazol-1-yl)piperidine-2,6-dione]
Cn1c(=O)n(C2CCC(=O)NC2=O)c2ccc(C3CCN(CCN4CCC(C(=O)N5CCC(Nc6ncc(Cl)c(-c7cccc(-c8ccccc8)c7)n6)CC5)CC4)CC3)cc21 (stereo not shown) [Compound 45, 3-[5-[1-[2-[4-[4-[[5-chloro-4-(3-phenylphenyl)pyrimidin-2-yl]amino]piperidine-1-carbonyl]-1-piperidyl]ethyl]-4-piperidyl]-3-methyl-2-oxo-benzimidazol-1-yl]piperidine-2,6-dione]
Cn1c(=O)n(C2CCC(=O)NC2=O)c2ccc(C3CCN(C(=O)CN4CCC(C(=O)N5CCC(Nc6ncc(Cl)c(-c7cccc(-c8ccccc8)c7)n6)CC5)CC4)CC3)cc21 (stereo not shown) [Compound 46, 3-(5-(1-(2-(4-(4-((4-([1,1′-biphenyl]-3-yl)-5-chloropyrimidin-2-yl)amino)piperidine-1-carbonyl)piperidin-1-yl)acetyl)piperidin-4-yl)-3-methyl-2-oxo-2,3-dihydro-1H-benzo[d]imidazol-1-yl)piperidine-2,6-dione]
